One data set concerns DAFP-1. Nature of the data set: Antifreeze (TH) activity measurements by differential scanning calorimetry: enhancement of TH activity of DAFP-1. To be noted: for enhancement ability for the TH activity of DAFP-1 (in words, relative) / molar enhancement effectiveness order: pH 7.5; for molar enhancement effectiveness order: FIG. 2 and FIG. 3. The format is biochemical, Dendroides canadensis. From the text:
(§1) The pH of the final samples was 7.5.
(Differential scanning calorimetry records heat flow against a reference as temperature is scanned.)

In data set [1] the test system is DAFPs: DAFP-1, -2, -4, and -6. Briefly: TH enhancement by exemplified enhancers for DAFPs. Type of data set: biochemical, Dendroides canadensis.
A short description of data set [2]: Solubility of enhancer in the TH test system. The format is physicochemical.
Source text: as §1

Data set [3] concerns the target T1, Dendroides canadensis antifreeze protein DAFP-1 (SEQ. ID 1, amino acid 28 through amino acid 108) (Dendroides canadensis, UniProt O46352).
T1 construct: b42 prefers 28-108
T1 sequence (O46352 26-108): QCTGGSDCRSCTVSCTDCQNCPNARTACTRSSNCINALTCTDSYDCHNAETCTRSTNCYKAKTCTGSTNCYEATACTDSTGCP
Nature of the data set: Size-exclusion HPLC (Hummel and Dreyer gel filtration method) of NADH binding to DAFP-1. As to conditions: pH 7.00, ambient temperature, DAFP-1 1.5-20 μM, NADH 0-270 μM, nonlinear regression. On the procedure:
The formation of 1:1 complex of DAFP-1 and NADH was further confirmed by HPLC analysis. With the gel filtration method of Hummel and Dreyer, the size exclusion column can be equilibrated with a buffer containing the ligand at a known concentration. The protein sample prepared in the buffer (containing the ligand at the same concentration) is injected into the equilibrated column. If binding occurs, the concentrations of the ligand in the elution buffer and in the elution are usually different. […] The bound ligand can be determined more precisely using the internal calibration method. […]
The binding of NADH to DAFP-1 was characterized using HPLC by an improved gel filtration method of Hummel and Dreyer (Hummel and Dreyer, 1962; Parsons, 1980). […] The eluates were monitored at 220 nm. […] The initial concentrations of NADH were determined using the molar extinction coefficient (ε340=6.22×10^3M^−1cm^−1) (Dawson et al., 1985). […] The amount of bound NADH was determined by the internal calibration method (Parsons 1980; Sun and Hsiao, 1993). The amount of free NADH is obtained fromthe difference of total NADH and calculated bound NADH. […]
For orientation: In gel filtration, larger molecules generally elute earlier.

Broadly, the Kd is the constant that tells how readily two partners part at equilibrium. A low value points to higher affinity.

Entries after “also recorded” stand apart in the source; their conditions may differ. Like-named read-outs stand apart in the source and are kept apart here.

As to `NC(=S)c1ccc[n+]([C@@H]2O[C@H](COP(=O)([O-])OP(=O)(O)OC[C@H]3O[C@@H](n4cnc5c(N)ncnc54)[C@H](O)[C@@H]3O)[C@@H](O)[C@H]2O)c1` [TNAD, thionicotinamide adenine dinucleotide], in the data set with DAFP-1 (DSC, DAFP-1 453 μM), the “enhancement ability for the TH activity of DAFP-1 (in words, relative)” value (shortened to “enhancement ability … (in words, relative)”) was “very efficient enhancement ability” and the “molar enhancement effectiveness order” value is given as “NADH>NAD>TNAD>PAAD”.

On to `CC(C)(COP(=O)(O)OP(=O)(O)OC[C@H]1O[C@@H](n2cnc3c(N)ncnc32)[C@H](O)[C@@H]1OP(=O)(O)O)[C@@H](O)C(=O)NCCC(=O)NCCS` [CoA, coenzyme A], for which the “enhancement ability … (in words, relative)” value with DAFP-1 (DSC, DAFP-1 453 μM) is “less than those of NADH and NAD analogs”.

Consider `Nc1ncnc2c1ncn2[C@@H]1O[C@H](COP(=O)(O)OP(=O)(O)OC[C@H]2OC(O)[C@H](O)[C@@H]2O)[C@@H](O)[C@H]1O` (stereo partly shown) [ADPR, adenosine 5′-diphosphoribose], for which, in the data set on DAFP-1 (DSC, DAFP-1 453 μM), the “enhancement ability … (in words, relative)” value was “most efficient enhancement ability among these fragments” and the “molar enhancement effectiveness order” value is listed as “ADPR>AMP>adenosine>R5P>pyrophosphate>ribose”.

Consider `Nc1ncnc2c1ncn2[C@@H]1O[C@H](COP(=O)(O)O)[C@@H](O)[C@H]1O` [AMP, (−)-adenosine 5′-monophosphate], for which the “molar enhancement effectiveness order” value with DAFP-1 (DSC, DAFP-1 453 μM) is “ADPR>AMP>adenosine>R5P>pyrophosphate>ribose”.

With `Nc1ncnc2c1ncn2C1OC(COP(=O)(O)OP(=O)(O)OCC2OC([n+]3cccc(C=O)c3)C(O)C2O)C(O)C1O` (stereo not shown) [PAAD, 3-pyridine aldehyde adenine dinucleotide], in the data set on DAFP-1 (DSC, DAFP-1 453 μM), the “enhancement ability … (in words, relative)” value is reported as “very efficient enhancement ability; also recorded: least effective enhancer among the analogs” and the “molar enhancement effectiveness order” value is reported as “NADH>NAD>TNAD>PAAD”.

On to `NC(=O)c1ccc[n+]([C@@H]2O[C@H](COP(=O)([O-])OP(=O)(O)OC[C@H]3O[C@@H](n4cnc5c(N)ncnc54)[C@H](O)[C@@H]3O)[C@@H](O)[C@H]2O)c1` [NAD, (3-nicotinamide adenine dinucleotide], for which, in the data set with DAFP-1 (DSC, DAFP-1 453 μM), the “enhancement ability … (in words, relative)” value was “very similar to that of its reduced form, NADH, although slightly lower” and the “molar enhancement effectiveness order” value is on record as “NADH>NAD>TNAD>PAAD”.

Consider `NC(=O)C1=CN([C@@H]2O[C@H](COP(=O)(O)OP(=O)(O)OC[C@H]3O[C@@H](n4cnc5c(N)ncnc54)[C@H](OP(=O)(O)O)[C@@H]3O)[C@@H](O)[C@H]2O)C=CC1` [NADPH, (3-nicotinamide adenine dinucleotide phosphate, reduced], for which the “enhancement ability … (in words, relative)” value in the data set on DAFP-1 (DSC, DAFP-1 453 μM) is “most efficient enhancer; also recorded: much higher than any of the known enhancers”.

For the molecule `Nc1ncnc2c1ncn2[C@@H]1O[C@H](COP(=O)(O)OP(=O)(O)O)[C@@H](O)[C@H]1O` [ADP, adenosine 5′-diphosphate], the “enhancement ability … (in words, relative)” value in the data set with DAFP-1 (DSC, DAFP-1 453 μM) is “less than that of ADPR; also recorded: lower than that of AMP”.

Consider `O=C[C@H](O)[C@H](O)[C@H](O)COP(=O)(O)O` [R5P, D-ribose-5-phosphate], for which, in the data set on DAFP-1 (DSC, DAFP-1 453 μM), the “molar enhancement effectiveness order” value is recorded as “ADPR>AMP>adenosine>R5P>pyrophosphate>ribose”.

Consider `Nc1ncnc2c1ncn2[C@@H]1O[C@H](COP(=O)(O)OP(=O)(O)OP(=O)(O)O)[C@@H](O)[C@H]1O` [ATP], for which the “increase of the TH activity of DAFPs” value in data set [1] is “at least 5 fold”.

Regarding `O=C[C@H](O)[C@H](O)[C@H](O)CO` [ribose, D-(−)-ribose], in the data set on DAFP-1 (DSC, DAFP-1 453 μM), the “enhancement ability … (in words, relative)” value is reported as “least enhancement” and the “molar enhancement effectiveness order” value was “ADPR>AMP>adenosine>R5P>pyrophosphate>ribose”.

In the case of `Cc1cc2nc3c(=O)[nH]c(=O)nc-3n(C[C@H](O)[C@H](O)[C@H](O)COP(=O)(O)OP(=O)(O)OC[C@H]3O[C@@H](n4cnc5c(N)ncnc54)[C@H](O)[C@@H]3O)c2cc1C` [FAD, flavin adenine dinucleotide], the “enhancement ability … (in words, relative)” value in the data set on DAFP-1 (DSC, DAFP-1 453 μM) is “less than those of NADH and NAD analogs”. In addition, in data set [2], the “solubility (in words)” value is on record as “limited by its solubility”.

As for `O=c1[nH]c(=O)n([C@@H]2O[C@H](CO)[C@@H](O)[C@H]2O)cc1F` [5-Fluorouridine], the “increase of the TH activity of DAFPs” value in data set [1] is recorded as 2 fold.

On to `O=C[C@H](F)[C@@H](O)[C@H](O)[C@H](O)CO` [2-fluoro-2-deoxy-D-glucose], for which the “increase of the TH activity of DAFPs” value in data set [1] came to 2 fold.

For the molecule `Nc1ncnc2c1ncn2[C@@H]1O[C@H](CO)[C@@H](O)[C@H]1O` [adenosine], the “molar enhancement effectiveness order” value with DAFP-1 (DSC, DAFP-1 453 μM) is “ADPR>AMP>adenosine>R5P>pyrophosphate>ribose”. Further, the “enhancement ability for the TH activity of DAFP-1 at 0.080M” value with DAFP-1 (enhancer 0.080M) was “lower than that of ADP”. Also, in data set [2] (TH test system), the “solubility (in words)” value is given as “low solubility”.

On to `NC(=O)C1=CN([C@@H]2O[C@H](COP(=O)(O)OP(=O)(O)OC[C@H]3O[C@@H](n4cnc5c(N)ncnc54)[C@H](O)[C@@H]3O)[C@@H](O)[C@H]2O)C=CC1` [NADH, (3-nicotinamide adenine dinucleotide, reduced], for which, in the data set with DAFP-1 (DSC, DAFP-1 453 μM), the “molar enhancement effectiveness order” value is listed as “NADH>NAD>TNAD>PAAD”. This molecule also displayed a Kd in data set [3] of 280 ± 20 nM.

For `O=P(O)(O)OP(=O)(O)O` [pyrophosphate], in the data set with DAFP-1 (DSC, DAFP-1 453 μM), the “molar enhancement effectiveness order” value is “ADPR>AMP>adenosine>R5P>pyrophosphate>ribose”.

B1: DAFP-1: Dendroides canadensis antifreeze protein, recombinantly expressed in E. coli; SEQ. ID 1 amino acids 28 through 108 (protein, listed as Dendroides canadensis)
chain: TGGSDCRSCTVSCTDCQNCPNARTACTRSSNCINALTCTDSYDCHNAETCTRSTNCYKAKTCTGSTNCYEATACTDSTGCP
notes: Dendroides canadensis antifreeze protein, recombinantly expressed in E. coli; ID 1 amino acids 28 through 108
In the case of B1, the “TH activity of the protein sample alone” value in the data set on DAFP-1 (DAFP-1 453 μM, no enhancer, DSC) came to 0.69±0.01 °C. In the data set on DAFP-1 (pH 2 to pH 12), the “TH activity of DAFP-1 as a function of pH” value was “unchanged”.

(Values after patent US10426159B1, “Highly efficient enhancers for antifreeze protein activity” (The Trustees of California State University, priority 2012, dated 2019).)
